Assay results published in ChEMBL document CHEMBL3046147, “Synthesis and Herbicidal Activity of 1-Arylalkyl-3-pyrrolin-2-one Derivatives” (J Pestic Sci, 2000).
The source made the active and inactive calls. The rule behind the calls is not given here.

Key:
[1] = test system: Rotala indica; test: Herbicidal activity against Rotala indica at 500 g /ha treated at 1 to 2-pairs of leaf stage measured after 26 days by outdoor concrete pot test; type: functional, organism-based
[2] = test system: Lindernia procumbens; test: Herbicidal activity against Lindernia procumbens at 1000 g /ha treated at 1 to 2-pairs of leaf stage measured after 26 days by outdoor concrete pot test; type: functional, organism-based
[3] = test system: Echinochloa oryzicola; test: Herbicidal activity against Echinochloa oryzicola under greenhouse condition assessed as time duration of residual effect at 125 g /ha; type: functional
[4] = test system: Lindernia procumbens; test: Herbicidal activity against Lindernia procumbens at 500 g /ha treated at 1 to 2-pairs of leaf stage measured after 26 days by outdoor concrete pot test; type: functional, organism-based
[5] = test system: Pontederia vaginalis; test: Herbicidal activity against Monochoria vaginalis at 1000 g /ha treated at 1.5 to 2-leaf stage measured after 26 days by outdoor concrete pot test; type: functional, organism-based
[6] = test system: Schoenoplectiella juncoides; test: Herbicidal activity against Schoenoplectiella juncoides at 1000 g /ha treated at 1.5 to 2.1-leaf stage measured after 26 days by outdoor concrete pot test; type: functional, organism-based
[7] = test system: Pontederia vaginalis; test: Herbicidal activity against Monochoria vaginalis at 250 g /ha treated at 1.5 to 2-leaf stage measured after 26 days by outdoor concrete pot test; type: functional, organism-based
[8] = test system: Echinochloa oryzicola; test: Herbicidal activity against Echinochloa oryzicola under greenhouse condition assessed as growth inhibition at 1000 g /ha measured after 20 days; type: functional, organism-based
[9] = test system: Echinochloa oryzicola; test: Herbicidal activity against Echinochloa oryzicola under greenhouse condition assessed as growth inhibition at 250 g /ha measured after 13 days; type: functional, organism-based
[10] = test system: Echinochloa oryzicola; test: Herbicidal activity against Echinochloa oryzicola under greenhouse condition assessed as growth inhibition at 500 g /ha measured after 42 days; type: functional, organism-based
[11] = test system: Echinochloa oryzicola; test: Herbicidal activity against Echinochloa oryzicola under greenhouse condition assessed as growth inhibition at 125 g /ha measured after 42 days; type: functional, organism-based
[12] = test system: Echinochloa oryzicola; test: Herbicidal activity against Echinochloa oryzicola under greenhouse condition assessed as growth inhibition at 125 g /ha measured after 33 days; type: functional, organism-based
[13] = test system: Echinochloa oryzicola; test: Herbicidal activity against Echinochloa oryzicola under greenhouse condition assessed as growth inhibition at 125 g /ha measured after 6 days; type: functional, organism-based
[14] = test system: Elatine triandra; test: Herbicidal activity against Elatine triandra at 500 g /ha treated at 1 to 2-pairs of leaf stage measured after 26 days by outdoor concrete pot test; type: functional, organism-based
[15] = test system: Echinochloa oryzicola; test: Herbicidal activity against Echinochloa oryzicola grown in water-drained pot under greenhouse condition assessed as growth inhibition at 500 g /ha measured after 42 days; type: functional, organism-based
[16] = test system: Echinochloa oryzicola; test: Herbicidal activity against Echinochloa oryzicola grown in water-drained pot under greenhouse condition assessed as growth inhibition at 500 g /ha measured after 33 days; type: functional, organism-based
[17] = test system: Echinochloa oryzicola; test: Herbicidal activity against Echinochloa oryzicola grown in water-drained pot under greenhouse condition assessed as growth inhibition at 500 g /ha measured after 13 days; type: functional, organism-based
[18] = test system: Echinochloa oryzicola; test: Herbicidal activity against Echinochloa oryzicola grown in water-drained pot under greenhouse condition assessed as growth inhibition at 125 g /ha measured after 33 days; type: functional, organism-based
[19] = test system: Echinochloa oryzicola; test: Herbicidal activity against Echinochloa oryzicola grown in water-drained pot under greenhouse condition assessed as growth inhibition at 125 g /ha measured after 13 days; type: functional, organism-based
[20] = test system: Schoenoplectiella juncoides; test: Herbicidal activity against Schoenoplectiella juncoides at 250 g /ha treated at 1.5 to 2.1-leaf stage measured after 26 days by outdoor concrete pot test; type: functional, organism-based
[21] = test system: Oryza sativa; test: Phytotoxicity against two-leaf stage Oryza sativa cv. Nihonbare (rice) planted 1 cm depth measured after […]; type: organism-based; details: in vivo
[22] = test system: Sagittaria pygmaea; test: Herbicide activity against Sagittaria pygmaea under greenhouse condition compound treated at 0.5 leaf-stage measured after 14 to 20 days; type: functional
[23] = test system: Echinochloa oryzicola; test: Herbicidal activity against Echinochloa oryzicola under greenhouse condition assessed as growth inhibition at 1000 g /ha measured after 6 days; type: functional, organism-based
[24] = test system: Echinochloa oryzicola; test: Herbicidal activity against Echinochloa oryzicola under greenhouse condition assessed as growth inhibition at 250 g /ha measured after 33 days; type: functional, organism-based

`CC1=C(c2ccccc2)C(=O)N(C(C)(C)c2nc3ccccc3s2)C1` was tested, and the “growth inhibition (GI)” value [1] was “Active”, the “growth inhibition (GI)” value [2] was “Active” and the Time [3] was 30 days. For the same compound, the “growth inhibition (GI)” value [4] was “Active”, the “growth inhibition (GI)” value [5] was “Active” and the “growth inhibition (GI)” value [6] was “inactive”. For the same compound, the “growth inhibition (GI)” value [7] was “inactive”, the “growth inhibition (GI)” value [8] was “Active” and the “growth inhibition (GI)” value [9] was “Active”. For the same compound, the “growth inhibition (GI)” value [10] was “Active”, the “growth inhibition (GI)” value [11] was “Active” and the “growth inhibition (GI)” value [12] was “Active”. For the same compound, the “growth inhibition (GI)” value [13] was “Active”, the “growth inhibition (GI)” value [14] was “Active” and the “growth inhibition (GI)” value [15] was “inactive”. For the same compound, the “growth inhibition (GI)” value [16] was “Active”, the “growth inhibition (GI)” value [17] was “Active” and the “growth inhibition (GI)” value [18] was “inactive”. For the same compound, the “growth inhibition (GI)” value [19] was “Active”, the “growth inhibition (GI)” value [20] was “inactive” and the MTD [21] was 2.5 g/acre. For the same compound, the MED [22] was 20 g/acre, the “growth inhibition (GI)” value [23] was “Active” and the “growth inhibition (GI)” value [24] was “inactive”.
